Test results published in PubChem BioAssay AID1963980 (Molecular Pharmacology Branch, DTP, NCI, 2024).
Each block holds one compound with its values, some of them ahead of it.

System: 475296-252-R-J1-PDC spheroid viability
Assay: Anticancer human tumor 475296-252-R-J1-PDC patient-derived rectal carcinoma cell line growth inhibition [PI3K]
Details: spheroids with HUVEC and MSC; for IC50: curve of first compound; for viability, T/C: stronger effect = lower value
Description: Combinatorial screen of targeted agents with the PI3K inhibitors inavolisib, alpelisib, duvelisib, and copanlisib in multi-cell type tumor spheroids
A high-throughput screen of multi-cell type tumor spheroids was designed to identify active combinations of targeted small molecules and PI3K pathway inhibitors. Complex spheroids include a stromal component modeled by human endothelial cells (HUVEC) and fibroblasts modeled by human mesenchymal stem cells (MSCs). The concentration ranges selected for each drug and investigational agent were based upon clinically achievable concentrations if the clinical Cmax of the agent was known.
Compounds. The drugs and investigational agents: inavolisib (NSC800729), alpelisib (NSC765974), duvelisib (NSC772469), copanlisib (NSC816437), ipatasertib (NSC767898), afuresertib (NSC778305), talazoparib (NSC767125), sapanisertib (NSC764658), selumetinib (NSC741078), tovorafenib (DAY101, NSC766906), vemurafenib (NSC761431), ravoxertinib (NSC781343), sotorasib (NSC818433), MRTX1133 (NSC 836407), abemaciclib (NSC 768073), palbociclib (NSC758247), venetoclax (NSC 766270), SY5609 (NSC837396), enzalutamide (NSC755605), and darolutamide (NSC825331), were obtained from the National Cancer Institute (NCI) Developmental Therapeutics Program Chemical Repository. The FDA-approved anticancer drug set is available from the NCI Developmental Therapeutics Program. […] The stock solutions were prepared in dimethyl sulfoxide (DMSO, Sigma-Aldrich, St. Louis, MO, cat. D2650) at 800-fold the tested concentration and stored at -70 degrees C prior to their use. All drugs and investigational agents were tested over a range starting from a high concentration at or near the clinical Cmax and decreasing in half-log increments. If the clinical Cmax for an agent had not been determined, the highest concentration tested was 10 microM.
Cell Culture. All cells were maintained in an incubator at 37 degrees C and 5% CO2 with 95% humidity. The PDC lines were cultured according to standard operating procedures established by the NCI PDMR (https://pdmr.cancer.gov/sops/default.htm). All PDCs were thawed and cultured in Matrigel-coated flasks prepared with a working solution of 1X Ham's F-12 nutrient mix, without supplementation (Invitrogen, Waltham, MA, cat. 11765054), 100 U/mL penicillin-streptomycin (Invitrogen, cat. 15140122), and 2.5% Matrigel (Corning Inc., Corning, NY, cat. 354248) for the first three passages. The 354836-022-R-J1-PDC, 475296-252-R-J1-PDC, and 997726-040-R-J2-PDC lines were cultured in 6A media, which includes advanced DMEM/F-12 (Thermo Fisher Scientific, cat. 12634028), 10 mM HEPES (Thermo Fisher Scientific, cat. 15630080), 1X GlutaMAX supplement (Thermo Fisher Scientific, cat. 35050061), 0.1 mg/mL primocin (InvivoGen, San Diego, CA, cat. ant-pm-2), 10% defined fetal bovine serum, heat inactivated (HyClone Laboratories Inc., Logan, UT, cat. SH30070.03HI), 50% L-WRN conditioned media (ATCC, cat. CRL-3276), 1.25 mM N-Acetyl-L-cysteine (Sigma-Aldrich, cat. A9165), 10 mM nicotinamide (Sigma-Aldrich, cat. N0636), 1X B-27 supplement (Thermo Fisher Scientific, cat. 17504044), 1X N-2 supplement (Thermo Fisher Scientific, cat. 17502048), and 10 microM Y-27632 dihydrochloride (Tocris Bioscience, Bristol, United Kingdom, cat. 1254). The 624824-186-R-J2-PDC line was cultured in 6C/Colon 1B media, which includes all 6A media components plus 50 ng/mL human EGF recombinant protein (Thermo Fisher Scientific, cat. PHG0311). […]

[1] = second compound 0.00316 µM, first compound 0.0316 µM
[2] = second compound 0.00316 µM, first compound 0.1 µM
[3] = second compound 0.00316 µM, first compound 0.316 µM
[4] = second compound 0.00316 µM, first compound 1 µM
[5] = second compound 0.00316 µM, first compound 3.16 µM
[6] = second compound 0.00316 µM, first compound 10 µM
[7] = second compound 0.01 µM, first compound 0.0316 µM
[8] = second compound 0.01 µM, first compound 0.1 µM
[9] = second compound 0.01 µM, first compound 0.316 µM
[10] = second compound 0.01 µM, first compound 1 µM
[11] = second compound 0.01 µM, first compound 3.16 µM
[12] = second compound 0.01 µM, first compound 10 µM
[13] = second compound 0.0316 µM, first compound 0.0316 µM
[14] = second compound 0.0316 µM, first compound 0.1 µM
[15] = second compound 0.0316 µM, first compound 0.316 µM
[16] = second compound 0.0316 µM, first compound 1 µM
[17] = second compound 0.0316 µM, first compound 3.16 µM
[18] = second compound 0.0316 µM, first compound 10 µM
[19] = second compound 0.1 µM, first compound 0.0316 µM
[20] = second compound 0.1 µM, first compound 0.1 µM
[21] = second compound 0.1 µM, first compound 0.316 µM
[22] = second compound 0.1 µM, first compound 1 µM
[23] = second compound 0.1 µM, first compound 3.16 µM
[24] = second compound 0.1 µM, first compound 10 µM
[25] = second compound 0.316 µM, first compound 0.0316 µM
[26] = second compound 0.316 µM, first compound 0.1 µM
[27] = second compound 0.316 µM, first compound 0.316 µM
[28] = second compound 0.316 µM, first compound 1 µM
[29] = second compound 0.316 µM, first compound 3.16 µM
[30] = second compound 0.316 µM, first compound 10 µM
[31] = second compound 1 µM, first compound 0.0316 µM
[32] = second compound 1 µM, first compound 0.1 µM
[33] = second compound 1 µM, first compound 0.316 µM
[34] = second compound 1 µM, first compound 1 µM
[35] = second compound 1 µM, first compound 3.16 µM
[36] = second compound 1 µM, first compound 10 µM
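Also: spheroids exposed to agents for seven days before readout.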

IC50 (second compound 0.00316 µM): > 10 µM
IC50 (second compound 0.01 µM): > 10 µM
IC50 (second compound 0.0316 µM): > 10 µM
IC50 (second compound 0.1 µM): > 10 µM
IC50 (second compound 0.316 µM): > 10 µM
IC50 (second compound 1 µM): > 10 µM
SMILES: CC1(C)CCC(CN2CCN(c3ccc(C(=O)NS(=O)(=O)c4ccc(NCC5CCOCC5)c([N+](=O)[O-])c4)c(Oc4cnc5[nH]ccc5c4)c3)CC2)=C(c2ccc(Cl)cc2)C1 + CC(Nc1ccc2c(c1)OCCn1cc(N3C(=O)OCC3C(F)F)nc1-2)C(N)=O
viability, T/C [1]: 109%
viability, T/C [2]: 94.4%
viability, T/C [3]: 92.3%
viability, T/C [4]: 87.3%
viability, T/C [5]: 86.3%
viability, T/C [6]: 84.2%
viability, T/C [7]: 92.4%
viability, T/C [8]: 85.5%
viability, T/C [9]: 101%
viability, T/C [10]: 83.2%
viability, T/C [11]: 93%
viability, T/C [12]: 74.5%
viability, T/C [13]: 95.5%
viability, T/C [14]: 96%
viability, T/C [15]: 94.3%
viability, T/C [16]: 96.2%
viability, T/C [17]: 96.9%
viability, T/C [18]: 77.2%
viability, T/C [19]: 87.7%
viability, T/C [20]: 96.1%
viability, T/C [21]: 87%
viability, T/C [22]: 97.1%
viability, T/C [23]: 90.4%
viability, T/C [24]: 73.7%
viability, T/C [25]: 85.2%
viability, T/C [26]: 83.8%
viability, T/C [27]: 93.9%
viability, T/C [28]: 88.3%
viability, T/C [29]: 81.2%
viability, T/C [30]: 74.1%
viability, T/C [31]: 93.7%
viability, T/C [32]: 82.3%
viability, T/C [33]: 85.8%
viability, T/C [34]: 89.6%
viability, T/C [35]: 82.6%
viability, T/C [36]: 72.8%

IC50 (second compound 0.00316 µM): > 10 µM
IC50 (second compound 0.01 µM): > 10 µM
IC50 (second compound 0.0316 µM): > 10 µM
IC50 (second compound 0.1 µM): > 10 µM
IC50 (second compound 0.316 µM): > 10 µM
IC50 (second compound 1 µM): > 10 µM
SMILES: C[C@@H](NC(=O)c1ncnc(N)c1Cl)c1ncc(C(=O)Nc2cc(C(F)(F)F)c(Cl)cn2)s1 + CC(Nc1ccc2c(c1)OCCn1cc(N3C(=O)OCC3C(F)F)nc1-2)C(N)=O
viability, T/C [1]: 98.9%
viability, T/C [2]: 84%
viability, T/C [3]: 99.5%
viability, T/C [4]: 108%
viability, T/C [5]: 93.8%
viability, T/C [6]: 90%
viability, T/C [7]: 95%
viability, T/C [8]: 76%
viability, T/C [9]: 103%
viability, T/C [10]: 103%
viability, T/C [11]: 108%
viability, T/C [12]: 89%
viability, T/C [13]: 80.3%
viability, T/C [14]: 102%
viability, T/C [15]: 100%
viability, T/C [16]: 116%
viability, T/C [17]: 96.7%
viability, T/C [18]: 79.3%
viability, T/C [19]: 90.3%
viability, T/C [20]: 93.1%
viability, T/C [21]: 102%
viability, T/C [22]: 93.8%
viability, T/C [23]: 103%
viability, T/C [24]: 69%
viability, T/C [25]: 87.7%
viability, T/C [26]: 85.9%
viability, T/C [27]: 91.7%
viability, T/C [28]: 93.6%
viability, T/C [29]: 84.5%
viability, T/C [30]: 76.6%
viability, T/C [31]: 77.7%
viability, T/C [32]: 84.6%
viability, T/C [33]: 95.4%
viability, T/C [34]: 93%
viability, T/C [35]: 83%
viability, T/C [36]: 63.6%
